Laboratory results as given in patent US20110212199A1, “AGENT FOR TREATING EYE DISEASES” (priority 2003, published 2011).

Legend:
Assay type in all cases: in vivo, human
macular hole = experiment: Example 25: macular hole
normal tension glaucoma = experiment: Example 9: normal tension glaucoma patient
Experimental: The patient is person diagnosed as normal tension glaucoma. Water-soluble 17β-estradiol inclusion product (Cyclodextrin-encapsulated 17β-estradiol available from SIGMA CO. […] To the above-mentioned patient, 1 drop (25 μl) of eye drops was dropped per one eye once every morning for 10 days.

presbyopia [1] = experiment: Example 16: presbyopia, corrected near visual acuity; conditions: after 14 days; before 0.4
Description: To […] with presbyopia having corrected near visual acuity (near vision after correction) before treatment of […]

presbyopia [2] = experiment: Example 12: presbyopia, near point; conditions: for near point, left eye: before 29 cm
Experimental: The patient is person of presbyopia having slight myopia of −2.5 dioptre and −1.0D of astigmatism. When a near point of the left eye of the patient was measured without lens correction, it was 29 cm. Water-soluble 17β-estradiol inclusion product (Cyclodextrin-encapsulated 17β-estradiol available from SIGMA CO. […] To the patient was dropped 1 drop (25 μl) of eye drops at 9 AM per each eye. […] Incidentally, the far point was 41±2 cm in average.

C[C@]12CC[C@@H]3c4ccc(O)cc4CC[C@H]3[C@@H]1CC[C@@H]2O [17β-estradiol]
visual acuity, left eye (macular hole; after 1 month, before 0.7): 1.2
macular hole outcome (macular hole; person, left eye, 10 mg/l, 1 drop (50 μl) twice a day for 1 month): macular hole was cured
visual field by Octopus 1-2-3 (normal tension glaucoma; after 10 days): both eyes extremely well improved
intraocular pressure, left (normal tension glaucoma; after 10 days, before 12): 9 mmHg
intraocular pressure, right (normal tension glaucoma; person, 100 mg/l, 1 drop (25 μl) every morning for 10 days, before 14): 12 mmHg
near vision after correction Vs (30 cm) (presbyopia [1]): 0.7
near point, left eye (presbyopia [2]; after 3 hours): 24 cm
far point, average (presbyopia [2]; in vivo): 41±2 cm
maximum improvement in refraction (near point) (presbyopia [2]; in vivo): 5 cm
near point, left eye (presbyopia [2]; person, 100 mg/l, 1 drop (25 μl), after 1 hour): 27 cm
